# Laboratory results taken from US6803357B1, “Method of regulating glucose metabolism, and reagents related thereto” (New England Medical Center Hospitals, Inc., priority 1999, dated 2004).
# Key:
# [1] = tested on: DP-IV; assay: inhibition of / affinity for DP-IV; assay type: biochemical
# Description: As an illustrative embodiment, the ability of a test agent to inhibit DPIV can be assessed using a calorimetric or fluorometric substrate, such as Ala-Pro-paranitroanilide. […] Moreover, DPIV can be purified, and is accordingly readily amenable for use in such high throughput formats as multi-well plates.
# An illustrative reaction mixture includes […] (pH7.8), 10 μM Ala-Pro-paranitroanilide, 6 milliunits of DPIV, and 2% (v/v) dimethylformamide in a total volume of 1.0 mL. The reaction is initiated by addition of enzyme, and formation of reaction product (paranitroanilide) in the presence and absence of a test compound can be detected photometrically, e.g., at 410 nm.
# [2] = tested on: blood glucose levels; assay: oral glucose tolerance test (oral glucose challenge) in mice; assay type: in vivo; conditions: for glucose levels in blood / glucose control after a single injection: acute, single injection before oral glucose tolerance test; for blood sugar levels / glycemic excursion to oral glucose challenge, chronic treatment: injected twice daily for four days, then oral glucose challenge; for response to a sub-therapeutic dose of GLP-1: single injection, 8 μg GLP-1 five minutes prior to glucose
# Description: The first two experiments are “acute” experiments wherein the mice were injected with a single dose of Pro-boro-pro. In the first set of experiments mice were injected with 150 μg of Pro-boro-pro (PBP-1) and then subjected to an oral glucose tolerance test within an hour. […] In a second set of experiments mice were injected with Pro-boro-pro (PBP-2) one hour prior to an oral glucose challenge test. FIG. 3 presents the results of these experiments. Each set of experiments was also performed using saline as a control.
# The third set of experiments were “chronic” experiments, wherein the mice were injected twice daily with Pro-boro-pro for four days, followed by an oral glucose challenge.
molecule,measurement,setting,value
"CC(NC(=O)OC(C)(C)C)C(=O)N1CCCC1B(O)O (stereo not drawn) [Boc-blocked Ala-boroPro, Boc-Ala-boroPro]",affinity for DP-IV,[1],no affinity
O=C(C1CCCN1)N1CCCC1B(O)O (centres unmarked) [Pro-boro-pro],"fasting blood sugars, chronic treatment",[2]; chronic (>5 days) treatment alone,lowers
same,glucose levels in blood / glucose control after a single injection,[2]; mice,alone sufficient to improve glucose control
same,glucose levels in blood / glucose control after a single injection,"[2]; mice, listed as PBP-1",improves glucose levels in blood
same,glucose levels in blood / glucose control after a single injection,"[2]; mice, listed as PBP-2",improves glucose levels in blood
same,"blood sugar levels / glycemic excursion to oral glucose challenge, chronic treatment",[2]; mice,lowers
same,"blood sugar levels / glycemic excursion to oral glucose challenge, chronic treatment","[2]; mice, listed as PBP-3",lowering of the blood sugar levels
same,"blood sugar, oral glucose challenge","[2]; mice, overall statement on the experiments",clearly lowers blood sugar
same,response to a sub-therapeutic dose of GLP-1,[2]; mice,potentiate the response
same,response to a sub-therapeutic dose of GLP-1,"[2]; mice, listed as PBP-1",potentiates the response
L-Ala-L-boroPro-pinacol [early fraction],extent of DP-IV inhibition compared with later fractions,"[1]; at equal concentrations, silica gel fractions of Ala-boroPro-pinacol",inhibits DP-IV to a greater extent than later fractions
